These are literature values, as cited in patent publication US20230018472A1, “RHINENCHYSIS COMPOSITION CONTAINING OLOPATADINE” (TOKO YAKUHIN KOGYO CO., LTD., priority 2019, published 2023).

Each structure is given as a SMILES string. Where two headings read alike, the source gives them in different places.

As for `CN(C)CC/C=C1/c2ccccc2COc2ccc(CC(=O)O)cc21` [olopatadine], the Solubility of olopatadine entry reads like this: (around neutral pH) “very low”; (concentration 0.2% or more as free base, solution having pH of 5 or higher) “not soluble”.
